Patent US20230065495A1, “MULTIPARTITE AND CIRCULARLY PERMUTED BETA-BARREL POLYPEPTIDES AND METHODS FOR THEIR USE” (University of Washington, priority 2020, published 2023)
Several values for one entry are separate records, joined by “and”; a condition that tells them apart may be missing. Equal values may be shown once. Marks after values point to notes of the source that are not given here. Ends that are not written are not given here.

T1: MBP-tagged split mFAP fragment m16 (β-strands 1-6 of mFAP2a)
T1 chain: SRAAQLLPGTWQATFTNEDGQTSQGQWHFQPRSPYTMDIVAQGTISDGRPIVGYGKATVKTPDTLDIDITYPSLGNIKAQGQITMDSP

T2: MBP-tagged split mFAP fragment m15 (β-strands 1-5 of mFAP2a)
T2 chain: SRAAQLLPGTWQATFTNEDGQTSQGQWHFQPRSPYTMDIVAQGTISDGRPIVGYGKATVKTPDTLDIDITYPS

T3: MBP-tagged split mFAP fragment m17 (β-strands 1-7 of mFAP2a)
T3 chain: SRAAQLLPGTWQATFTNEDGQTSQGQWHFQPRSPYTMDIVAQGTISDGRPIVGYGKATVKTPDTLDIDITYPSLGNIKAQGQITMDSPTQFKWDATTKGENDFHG

B1: MBP-tagged split mFAP fragment m58 (β-strands 5-8 of mFAP2a) (designed binder, not shown: large carriers)
chain: DTLDIDITYPSLGNIKAQGQITMDSPTQFKWDATTKGENDFHGRLTGTLQRQE
modifications: also: MBP-tagged (side and linker not given here)
B2: MBP-tagged split mFAP fragment m48 (β-strands 4-8 of mFAP2a) (designed binder, not shown: large carriers)
chain: DGRPIVGYGKATVKTPDTLDIDITYPSLGNIKAQGQITMDSPTQFKWDATTKGENDFHGRLTGTLQRQE
B3: MBP-tagged split mFAP fragment m12 (β-strands 1-2 of mFAP2a) (designed binder, not shown: large carriers)
chain: SRAAQLLPGTWQATFTNEDGQTSQGQWHFQPRSP
modifications: also: MBP-tagged (side and linker not given here)
B4: cp35-34_mFAP2a_12: circularly permuted mFAP, SEQ ID NO: 341; brightest cpmFAP tested (protein)
chain: QEMDIVAQGTISDGRPIVGYGKATVKTPDTLDIDITYPSLGNIKAQGQITMDSPTQFKWDATTKGENDFHGRLTGTLQRTEEAKEATEEARRRGITTQAAQLLPGTWQATFTNEDGQTSQGQWHFQPRDG
B5: MBP-tagged split mFAP fragment m13 (β-strands 1-3 of mFAP2a) (designed binder, not shown: large carriers)
chain: SRAAQLLPGTWQATFTNEDGQTSQGQWHFQPRSPYTMDIVAQGTIS
modifications: also: MBP-tagged (side and linker not given here)
B6: MBP-tagged split mFAP fragment m38 (β-strands 3-8 of mFAP2a) (designed binder, not shown: large carriers)
chain: YTMDIVAQGTISDGRPIVGYGKATVKTPDTLDIDITYPSLGNIKAQGQITMDSPTQFKWDATTKGENDFHGRLTGTLQRQE
B7: MBP-tagged split mFAP fragment m14 (β-strands 1-4 of mFAP2a) (designed binder, not shown: large carriers)
chain: SRAAQLLPGTWQATFTNEDGQTSQGQWHFQPRSPYTMDIVAQGTISDGRPIVGYGKATVKTP

Tests used:
[1] = cited from earlier work; for Extinction Coefficient / Reported Quantum Yield / λabs, peak absorbance wavelength / λem, peak emission wavelength / λex, peak excitation wavelength: previously reported value
[2] = biological target: T1, MBP-tagged split mFAP fragment m16 …; test: fluorescence complementation titration: MBP-tagged m78 titrated into fixed MBP-tagged m16 in 25.0 µM DFHBI-1T; signal did not plateau, Kd is at least the highest titrant concentration
Protocol: (§1) Split mFAP fragment affinities (FIG. 1d,e,f,g) were estimated by preparing MBP-tagged split mFAP fragments by large-scale protein purification in high salt Tev cleavage buffer⁹, with 25.0 μM DFHBI-1T final concentration at 28.0 μL final volumes per well in flat bottom, black polystyrene, non-binding surface 96-well half-area microplates (Corning 3686). 3.00 μL of either 132 μM m12, 122 μM m14, 101 μM m16, or 84.9 μM m17 in high salt Tev cleavage buffer was mixed with 3.00 μL of 150 μM DFHBI-1T in high salt Tev cleavage buffer. For each split mFAP fragment, 12.0 μL of the complementary split mFAP fragment in high salt Tev cleavage buffer (the titrant) was mixed in from eleven serial dilutions (\sqrt{10} dilution factor) starting from 422 μM m38, 33.0 μM m58, 348 μM m78, or 531 μM m8 stock solutions, respectively, including a twelfth condition without titrant. Fluorescence endpoints were measured on a Synergy Neo2 hybrid multi-mode reader (BioTek) using excitation wavelength λₑₓ=468 nm and emission wavelength λₑₘ=530 nm. For each titration, the fluorescence intensity of the condition without titrant was subtracted from the fluorescence intensities of samples containing titrant, then the background subtracted data was normalized from 0 to 1. […]

[3] = biological target: B7; test: fluorescence complementation titration: MBP-tagged m58 titrated into fixed MBP-tagged m14 in 25.0 µM DFHBI-1T; signal did not plateau, Kd is at least the highest titrant concentration
Protocol: as §1

[4] = biological target: B5; test: β-barrel self-complementation assay (fluorescence of DFHBI-1T)
Protocol: (§2) To measure fluorescence intensities in complementation assays (FIG. 1b), fluorescence was measured on a Synergy Neo2 hybrid multi-mode reader (BioTek) in flat bottom, black polystyrene, non-binding surface 96-well half-area microplates (Corning 3686). Each split mFAP fragment covalently fused to maltose binding protein (MBP) was purified by large-scale protein purification in high salt Tev cleavage buffer⁹. In technical triplicate, 12.0 μL of each MBP-tagged split mFAP fragment was mixed to an equimolar concentration supplemented with 1.00 μL of 1.25 mM DFHBI-1T (Lucerna) at 25.0 μL final volumes per well. Fluorescence endpoints were measured using excitation wavelength λₑₓ=478 nm and emission wavelength λₑₘ=520 nm. In technical triplicate, background fluorescence endpoints of wells with identical chromophore concentrations lacking protein (substituted for equivalent volumes of high salt Tev cleavage buffer) were measured, and the mean fluorescence endpoints were subtracted from the mean fluorescence endpoints of samples containing protein (FIG. 1b).

[5] = biological target: B6; test: split mFAP self-complementation, MBP-tagged fragments mixed equimolar with excess DFHBI-1T, fluorescence endpoint (n=3)
Protocol: as §2

[6] = biological target: T2, MBP-tagged split mFAP fragment m15 …; test: β-barrel self-complementation assay (fluorescence of DFHBI-1T)
Protocol: as §2

[7] = cpmFAP fluorescence intensity assay; type: biochemical; conditions: equimolar concentration, excess DFHBI-1T
Protocol: To measure the fluorescence intensities of cpmFAPs (FIG. 4b,d), fluorescence endpoints were measured on a Synergy Neo2™ hybrid multi-mode reader (BioTek) in flat bottom, black polystyrene, non-binding surface 96-well microplates (Corning 3650) or half-area microplates (Corning 3686). […]

[8] = biological target: B2; test: split mFAP self-complementation, MBP-tagged fragments mixed equimolar with excess DFHBI-1T, fluorescence endpoint (n=3)
Protocol: as §2

[9] = biological target: B3; test: β-barrel self-complementation assay, equimolar MBP-tagged fragments in excess DFHBI-1T
Protocol: as §2

[10] = biological target: B3; test: β-barrel self-complementation assay, equimolar MBP-tagged fragments in excess DFHBI-1T; reference is m1 with m28
Protocol: as §2

[11] = biological target: B3; test: fluorescence complementation titration: MBP-tagged m38 titrated into fixed MBP-tagged m12 in 25.0 µM DFHBI-1T; signal did not plateau, Kd is at least the highest titrant concentration
Protocol: as §1

[12] = biological target: T3, MBP-tagged split mFAP fragment m17 …; test: fluorescence complementation titration: MBP-tagged m8 titrated into fixed MBP-tagged m17 in 25.0 µM DFHBI-1T; signal did not plateau, Kd is at least the highest titrant concentration
Protocol: as §1

[13] = biological target: B1; test: split mFAP self-complementation, MBP-tagged fragments mixed equimolar with excess DFHBI-1T, fluorescence endpoint (n=3)
Protocol: as §2

CC1=NC(=Cc2cc(F)c(O)c(F)c2)C(=O)N1C [DFHBI, 3,5-difluoro-4-hydroxybenzylidene imidazolinone]
Absolute Quantum Yield ([1]; marked previously reported value): 0.001^#
Extinction Coefficient [1]: 30,100^¶ M^−1, cm^−1 and 31,935^# M^−1, cm^−1
Reported Quantum Yield [1]: 0.0007^¶
λabs, peak absorbance wavelength [1]: 418^¶ nm
λem, peak emission wavelength [1]: 489^¶ nm
λex, peak excitation wavelength [1]: 423^¶ nm

Cc1cc2cc3cc(C)c(N)cc3nc2cc1N.Cl [Acridine Yellow G]
quantum yield value of reference dye ([1]; in methanol): 0.57

CC1=N/C(=C\c2cc(F)c(O)c(F)c2)C(=O)N1CC(F)(F)F [DFHBI-1T, (Z)-4-(3,5-difluoro-4-hydroxybenzylidene)-2-methyl-1-(2,2,2-trifluoroethyl)-1H-imidazol-5(4H)-one]
Extinction Coefficient [1]: 35,400^¶ M^−1, cm^−1
Reported Quantum Yield [1]: 0.00098^¶
λabs, peak absorbance wavelength [1]: 422^¶ nm
λem, peak emission wavelength [1]: 495^¶ nm
λex, peak excitation wavelength [1]: 426^¶ nm

TQFKWDATTKGENDFHGRLTGTLQRQE (designed binder, not shown: large carriers, also: MBP tag fused, side and linker not given here) [MBP-tagged split mFAP fragment m78 (β-strands 7-8 of mFAP2a)]
Kd [2]: ≥ 232 µM

B1
Kd [3]: ≥ 22 µM

B2
binding result [4]: binds

B3
binding result [5]: binds

LGNIKAQGQITMDSPTQFKWDATTKGENDFHGRLTGTLQRQE (designed binder, not shown: large carriers, also: MBP tag fused, side and linker not given here) [MBP-tagged split mFAP fragment m68 (β-strands 6-8 of mFAP2a)]
binding result [6]: binds

B4
fluorescence intensity relative to mFAP2a [7]: ~93%

B5
binding result [8]: binds

B6
mean fluorescence intensity over mean background fluorescence intensity (fold) [9]: 7.34 fold
background-subtracted mean fluorescence intensity relative to the m1 and m28 combination (fold) [10]: 184 fold
Kd [11]: ≥ 281 µM

RLTGTLQRQE (designed binder, not shown: large carriers, also: MBP tag fused, side and linker not given here) [MBP-tagged split mFAP fragment m8 (β-strand 8 of mFAP2a)]
Kd [12]: ≥ 354 µM

B7
binding result [13]: binds
